The record followed here is the kinase profiling compilation of Christmann-Franck et al. (2016).

A word on the IC50: it is the concentration at which inhibition is half-maximal.

Holding throughout (experiment): SelectScreen, TR FRET
The target in test [1] is PRKDC (human) (UniProt P78527).
Test [2] has as its target PIK3C3 (human) (UniProt Q8NEB9).
In test [3] the target is PIK3C2B (human) (UniProt O00750).
Test [4] has as its target PI4KA (human) (UniProt P42356).

Sequence of PIK3C3 (human) (Q8NEB9 whole entry, looked up): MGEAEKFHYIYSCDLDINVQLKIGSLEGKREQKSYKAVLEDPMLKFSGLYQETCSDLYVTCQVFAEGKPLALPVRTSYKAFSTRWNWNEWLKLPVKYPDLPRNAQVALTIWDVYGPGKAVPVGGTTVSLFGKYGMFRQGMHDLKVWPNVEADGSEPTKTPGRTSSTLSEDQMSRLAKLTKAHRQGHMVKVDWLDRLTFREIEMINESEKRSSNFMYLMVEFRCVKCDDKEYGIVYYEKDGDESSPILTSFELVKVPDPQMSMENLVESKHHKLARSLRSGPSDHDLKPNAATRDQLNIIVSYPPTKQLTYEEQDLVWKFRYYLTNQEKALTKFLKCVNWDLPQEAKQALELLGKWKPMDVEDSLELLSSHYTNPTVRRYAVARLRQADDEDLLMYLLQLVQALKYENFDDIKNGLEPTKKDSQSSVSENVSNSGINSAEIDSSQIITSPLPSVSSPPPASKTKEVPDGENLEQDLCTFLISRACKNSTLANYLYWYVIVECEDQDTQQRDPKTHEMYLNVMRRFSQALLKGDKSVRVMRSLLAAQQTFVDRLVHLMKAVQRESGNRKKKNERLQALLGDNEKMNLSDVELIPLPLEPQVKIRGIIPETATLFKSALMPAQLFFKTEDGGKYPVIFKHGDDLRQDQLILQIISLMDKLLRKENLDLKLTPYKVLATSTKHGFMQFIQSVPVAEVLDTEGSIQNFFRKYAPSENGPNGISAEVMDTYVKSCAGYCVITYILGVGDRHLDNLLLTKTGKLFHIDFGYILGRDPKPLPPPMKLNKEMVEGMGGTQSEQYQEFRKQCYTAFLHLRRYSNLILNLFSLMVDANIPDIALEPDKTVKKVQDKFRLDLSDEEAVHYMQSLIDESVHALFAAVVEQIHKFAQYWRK
Sequence of PRKDC (human) (P78527 whole entry, looked up): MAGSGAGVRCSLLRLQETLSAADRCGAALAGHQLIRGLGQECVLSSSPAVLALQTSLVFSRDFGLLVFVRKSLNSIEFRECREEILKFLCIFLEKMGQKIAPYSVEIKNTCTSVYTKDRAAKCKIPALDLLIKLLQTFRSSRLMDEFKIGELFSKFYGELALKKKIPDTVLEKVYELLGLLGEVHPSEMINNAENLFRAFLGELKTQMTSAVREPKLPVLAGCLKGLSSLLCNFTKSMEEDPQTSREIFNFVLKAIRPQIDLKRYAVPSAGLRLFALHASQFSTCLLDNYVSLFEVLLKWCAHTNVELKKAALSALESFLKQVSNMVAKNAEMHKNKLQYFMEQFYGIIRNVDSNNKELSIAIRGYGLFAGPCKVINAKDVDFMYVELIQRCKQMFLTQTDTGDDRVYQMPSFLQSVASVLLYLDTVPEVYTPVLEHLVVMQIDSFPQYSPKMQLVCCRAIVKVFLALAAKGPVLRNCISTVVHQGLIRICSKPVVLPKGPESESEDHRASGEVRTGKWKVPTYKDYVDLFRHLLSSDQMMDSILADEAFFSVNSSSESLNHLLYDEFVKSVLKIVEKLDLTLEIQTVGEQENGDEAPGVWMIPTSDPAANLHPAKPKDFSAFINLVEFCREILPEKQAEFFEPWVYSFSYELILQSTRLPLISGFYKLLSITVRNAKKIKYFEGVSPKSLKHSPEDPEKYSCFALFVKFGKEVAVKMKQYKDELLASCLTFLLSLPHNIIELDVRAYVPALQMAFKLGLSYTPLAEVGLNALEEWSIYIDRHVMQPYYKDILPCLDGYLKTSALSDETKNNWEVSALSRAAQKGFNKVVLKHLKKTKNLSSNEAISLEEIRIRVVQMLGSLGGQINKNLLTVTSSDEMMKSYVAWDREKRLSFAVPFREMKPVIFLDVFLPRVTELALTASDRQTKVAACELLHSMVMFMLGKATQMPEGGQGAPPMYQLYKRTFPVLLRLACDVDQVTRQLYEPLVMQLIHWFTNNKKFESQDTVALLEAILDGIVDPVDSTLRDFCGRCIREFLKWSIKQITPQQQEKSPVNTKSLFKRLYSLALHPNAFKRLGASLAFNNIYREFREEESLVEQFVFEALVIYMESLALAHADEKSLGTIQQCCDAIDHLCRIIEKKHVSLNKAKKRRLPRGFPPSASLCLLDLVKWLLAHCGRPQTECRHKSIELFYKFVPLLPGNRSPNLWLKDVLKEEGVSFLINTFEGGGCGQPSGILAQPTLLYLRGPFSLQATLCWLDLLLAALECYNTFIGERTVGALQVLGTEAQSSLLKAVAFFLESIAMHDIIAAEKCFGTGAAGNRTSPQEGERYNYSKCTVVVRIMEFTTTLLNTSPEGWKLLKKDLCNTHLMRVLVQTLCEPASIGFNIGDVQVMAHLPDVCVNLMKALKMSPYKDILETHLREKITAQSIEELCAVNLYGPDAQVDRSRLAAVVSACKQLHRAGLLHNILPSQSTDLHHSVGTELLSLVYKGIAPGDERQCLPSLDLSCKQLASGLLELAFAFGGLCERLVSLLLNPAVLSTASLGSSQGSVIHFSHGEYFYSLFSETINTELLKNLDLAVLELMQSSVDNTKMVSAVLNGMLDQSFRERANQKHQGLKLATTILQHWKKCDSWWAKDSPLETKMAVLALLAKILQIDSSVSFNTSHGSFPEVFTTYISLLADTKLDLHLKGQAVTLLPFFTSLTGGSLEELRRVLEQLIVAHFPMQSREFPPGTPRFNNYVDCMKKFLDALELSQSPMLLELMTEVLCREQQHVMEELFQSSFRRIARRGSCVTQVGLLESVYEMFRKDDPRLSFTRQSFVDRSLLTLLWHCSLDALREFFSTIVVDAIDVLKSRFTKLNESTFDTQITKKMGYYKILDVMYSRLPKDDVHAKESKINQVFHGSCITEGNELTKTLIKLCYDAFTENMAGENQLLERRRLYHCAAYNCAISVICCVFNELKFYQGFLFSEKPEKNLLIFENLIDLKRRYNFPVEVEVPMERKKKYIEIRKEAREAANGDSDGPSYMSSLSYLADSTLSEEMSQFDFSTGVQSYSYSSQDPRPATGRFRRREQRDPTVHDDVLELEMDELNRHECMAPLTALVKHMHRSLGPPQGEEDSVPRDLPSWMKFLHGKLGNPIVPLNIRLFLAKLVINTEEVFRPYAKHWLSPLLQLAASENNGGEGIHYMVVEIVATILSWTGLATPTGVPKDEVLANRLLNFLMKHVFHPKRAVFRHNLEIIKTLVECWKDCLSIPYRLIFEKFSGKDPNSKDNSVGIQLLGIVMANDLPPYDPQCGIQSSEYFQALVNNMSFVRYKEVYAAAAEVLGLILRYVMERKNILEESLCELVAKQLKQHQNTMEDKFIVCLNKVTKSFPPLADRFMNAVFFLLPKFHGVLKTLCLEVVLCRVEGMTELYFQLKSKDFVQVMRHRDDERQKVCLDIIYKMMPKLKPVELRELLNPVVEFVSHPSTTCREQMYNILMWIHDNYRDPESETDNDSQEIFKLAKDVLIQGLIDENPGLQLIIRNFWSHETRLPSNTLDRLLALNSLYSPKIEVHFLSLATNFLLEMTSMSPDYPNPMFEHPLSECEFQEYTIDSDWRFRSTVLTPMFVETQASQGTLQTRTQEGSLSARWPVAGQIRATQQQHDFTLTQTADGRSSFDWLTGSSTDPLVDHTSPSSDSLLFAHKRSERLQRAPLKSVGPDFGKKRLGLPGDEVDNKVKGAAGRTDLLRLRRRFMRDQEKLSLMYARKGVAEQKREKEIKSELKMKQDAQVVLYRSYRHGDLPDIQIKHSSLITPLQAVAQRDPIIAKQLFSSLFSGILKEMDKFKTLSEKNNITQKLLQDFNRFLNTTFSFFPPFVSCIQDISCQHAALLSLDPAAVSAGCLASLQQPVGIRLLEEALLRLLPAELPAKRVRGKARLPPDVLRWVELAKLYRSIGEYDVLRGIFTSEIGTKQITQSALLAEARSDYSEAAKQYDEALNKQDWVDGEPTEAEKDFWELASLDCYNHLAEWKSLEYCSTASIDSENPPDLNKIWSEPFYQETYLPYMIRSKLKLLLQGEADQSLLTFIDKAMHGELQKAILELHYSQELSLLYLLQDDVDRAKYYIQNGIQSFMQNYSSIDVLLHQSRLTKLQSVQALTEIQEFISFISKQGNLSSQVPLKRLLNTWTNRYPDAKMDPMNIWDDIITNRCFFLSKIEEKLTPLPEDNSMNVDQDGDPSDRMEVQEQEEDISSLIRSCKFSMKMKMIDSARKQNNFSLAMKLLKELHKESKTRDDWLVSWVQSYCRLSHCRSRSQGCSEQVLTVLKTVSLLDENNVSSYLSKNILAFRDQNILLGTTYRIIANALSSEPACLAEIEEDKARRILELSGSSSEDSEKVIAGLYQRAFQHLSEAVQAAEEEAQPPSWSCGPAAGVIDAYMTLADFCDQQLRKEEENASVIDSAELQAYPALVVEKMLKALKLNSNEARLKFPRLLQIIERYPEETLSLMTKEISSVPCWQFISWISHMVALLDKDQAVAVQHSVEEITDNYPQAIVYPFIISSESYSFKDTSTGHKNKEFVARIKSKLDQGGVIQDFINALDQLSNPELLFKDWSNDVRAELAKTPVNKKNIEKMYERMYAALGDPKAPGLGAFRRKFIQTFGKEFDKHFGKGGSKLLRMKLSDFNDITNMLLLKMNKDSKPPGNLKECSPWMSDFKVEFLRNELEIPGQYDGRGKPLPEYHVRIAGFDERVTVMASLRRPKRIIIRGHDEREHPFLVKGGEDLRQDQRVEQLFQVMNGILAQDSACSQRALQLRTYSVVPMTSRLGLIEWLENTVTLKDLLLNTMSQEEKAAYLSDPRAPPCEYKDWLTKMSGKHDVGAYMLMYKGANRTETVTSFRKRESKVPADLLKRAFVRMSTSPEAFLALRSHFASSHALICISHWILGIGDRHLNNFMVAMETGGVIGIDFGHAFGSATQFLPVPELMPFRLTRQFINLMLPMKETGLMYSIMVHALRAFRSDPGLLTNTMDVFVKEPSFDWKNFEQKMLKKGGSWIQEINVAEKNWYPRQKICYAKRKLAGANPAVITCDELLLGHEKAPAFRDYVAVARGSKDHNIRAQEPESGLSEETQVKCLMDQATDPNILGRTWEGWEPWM

For the compound `Cc1cc([C@@H](C)Nc2ccccc2C(=O)O)c2nc(N3CCOCC3)cc(=O)n2c1`, the IC50 came to 53.7 nM in test [1], 3.39 µM in test [2], 54.1 nM in test [3] and 8.83 µM in test [4].
